Results taken from US10376486B2, “Compositions and methods for reactivating latent viral infections” (priority 2014, dated 2019).
“Also recorded” adds a separate entry of the source.

Legend:
[1] = tested on: PEP005-induced HIV reactivation in J-Lat A1 cells; experiment: Suppression of PEP005-induced HIV reactivation in J-Lat A1 cells (GFP expression by RT-qPCR); assay type: cell-based; settings: 6 nM PEP005, PKC inhibitor 1, 2 or 5 μM, Bay 11-7082 2.5 μM
Description: FIG. 4: PEP005-induced HIV reactivation is mediated through PKCδ/θ-IκBα/ε-NF-κB signaling. (A) PEP005-induced HIV reactivation is suppressed by inhibition of the PKCδ/θ. J-Lat A1 cells were treated with 6 nM of PEP005 in the presence of 1, 2 or 5 μM of PKC inhibitor (PKCθ/δ inhibitor; Milipore/Calbiochem (539649)) and evaluated for GFP expression by RT-qPCR. (B) NF-κB inhibition partially suppresses PEP005-induced HIV reactivation in J-Lat A1 cells. J-Lat A1 cells were treated with 6 nM of PEP005 in the presence of 2.5 μM Bay 11-7082, an NF-κB inhibitor, and were evaluated for GFP expression by RT-qPCR. (C) J-Lat A1 cells were treated with PEP005 or alternatively with PKC inhibitor alone or in the presence of PEP005 and the relative binding of NF-κB to the HIV LTR was determined using ChIP-qPCR.
Real-time PCR analysis of GFP or HIV gene expression: Total RNA was isolated from J-Lat A1 cells or U1 cells using the RNeasy Kit (Qiagen) followed by digestion with DNase I (Invitrogen). First strand cDNA was synthesized using Superscript II (Invitrogen). Real-time PCR (TaqMan) was performed on a ViiA 7 detector using the following primer/probe set: for J-Lat A1 cells, primer 1: 5′-[…]-3′ (SEQ ID NO:5), primer 2: 5′-[…]-3 ‘ (SEQ ID NO:6), probe 5’-FAM CTACAAGACCC G[…]-3′ (SEQ ID NO:7), for U1 cells HIV 5′ LTR primers/probe were used (see above). […]

[2] = tested on: latent HIV in J-Lat A1 cells; experiment: HIV latency reactivation in J-Lat A1 cells (GFP expression by flow cytometry); assay type: cell-based; settings: GFP, 24 h, PEP005 2-40 nM, GSK343 2 μM
Description: FIG. 1: PEP005 induces reactivation of HIV latency in vitro. J-Lat A1 cells were exposed to different concentrations of PEP005 and virus reactivation was measured by GFP expression using flow cytometry. Cell viability was determined by Live/Dead dye staining. (A) Chemical Structure of PEP005. […] (D) PEP005 potently reactivates latent HIV in cell lines compared with other LRAs. J-Lat A1 cells were treated with 10 nM PEP005, 500 nM SAHA, 2 μM JQ1, 2 μM GSK343, 10 ng/ml TNF, 2 μM Prostratin, or 5 ng/ml PMA for 24 hours and the percentage of GFP expression was evaluated using flow cytometry. *, p<0.05; **, p<0.01.
FIG. 2: PEP005 synergizes with other latency reversing agents in reactivating latent HIV. (A) J-Lat A1 cells were treated with 5 ng/ml PMA, 6 nM PEP005, 500 nM SAHA, 2 μM JQ1, 2 μM GSK343, or 10 μM Prostratin alone or in combination with 6 nM PEP005 for 24 hours and the percentage of GFP expressing cells was determined using flow cytometry. **, p<0.01; *, p<0.05 compared with control treatment; **, p<0.01; *, p<0.05 compared with PEP005 treatment alone. (B) The U1 cells were treated with 5 ng/ml PMA, 6 nM PEP005, 500 nM SAHA, 2 μM JQ1, or 2 μM GSK343, alone or in combination with 6 nM PEP005 for 24 hours and the HIV transcription was evaluated using RT-qPCR. Numbers indicate fold-increase over the control. **, p<0.01; *, p<0.05 compared with control treatment; **, p<0.01; *, p<0.05 compared with PEP005 treatment alone. […] The Bliss independence model was utilized for calculation of synergy for LRA combinations. Dotted horizontal line signifies pure additive effect (Δfaxy=0). Synergy is defined as Δfaxy>0 while Δfaxy<0 indicates antagonism. Statistical significance was determined using a one tailed ratio t-test comparing predicted and observed drug combination effects. *p<0.05; **p<0.01.
J-Lat A1 cells (harboring a single copy of latent HIV LTR and one copy of green fluorescent protein gene under the HIV LTR control) or U1 cells (harboring two latent HIV genomes with defective Tat gene) were cultured in RPMI1640 medium with 10% fetal bovine serum (FBS) and 1% Pen/strep in a 37° C. incubator containing 5% CO2 [24,31]. Both of the cell lines were obtained from NIH AIDS Reagent Program. For reactivation of HIV LTR, cells were treated with PMA (Sigma), JQ1 (Biovision), Prostatin (Sigma), SAHA (Santa Cruz), TNF-α (BD), GSK343 (Sigma), or PEP005 (Tocris Bioscience) for 24 h. HIV reactivation was quantified by GFP expression using flow cytometry and the data were analyzed using FlowJo Software for J-Lat A1 cells, or by quantitative RT-PCR (RT-qPCR) for J-Lat A1 and U1 cells. Cell viability was evaluated using Live/Dead dye (Life Technologies) by flow cytometry. So far, there is not a single in vitro cell culture model available that captures all the features of HIV latency. However, PKC agonists seem to reactivate latent HIV in all the cell culture models of viral latency. Similar to other J-Lat cell lines, the J-Lat A1 clone has been widely used by researchers for HIV latency studies. The T-cell-derived J-Lat A1 cells harbor one copy of a construct containing a Tat and a green fluorescent protein (GFP) gene framed by the 5′ and 3′ HIV LTR [32]. The J-Lat A1 cells also contain the TAR loop located within the R region of HIV LTR (nt +1 to +60), which provides an opportunity for Tat-TAR interactions for the modulation of transcription and transcriptional elongation. […]

[3] = tested on: PKCδ/θ-IκBα/ε-NF-κB signaling; settings: IngB treatment; cited from earlier work

With Cc1ccc(S(=O)(=O)/C=C/C#N)cc1 [Bay-11-7082] the “reduction of PEP005-induced latent HIV reactivation” value [1] was “approximately 50%”.
In the case of CCCc1cc(C)[nH]c(=O)c1CNC(=O)c1cc(-c2ccnc(N3CCN(C)CC3)c2)cc2c1cnn2C(C)C [GSK343], the “induction of HIV expression, agent alone” value [2] was “failed to induce HIV expression; also recorded: could not effectively induce HIV expression; also recorded: no capacity to reactivate latent HIV by itself”.
In the case of CCCCCC(=O)O[C@H]1C(C)=C[C@]23C(=O)[C@@H](C=C(CO)[C@@H](O)[C@]12O)[C@H]1[C@@H](C[C@H]3C)C1(C)C [IngB, ingenol-3-hexanoate], the “expression of NF-κB/p65 protein, earlier report [24]” value [3] is given as “increased expression of NF-κB/p65 protein”.
